Source: patent US20240199572A1, “COMPOUNDS, COMPOSITIONS, AND METHODS FOR TREATING TYPE 2 DIABETES AND DEMENTIA” (THE BOARD OF TRUSTEES OF THE UNIVERSITY OF ILLINOIS, priority 2021, published 2024)

Assays:
ABCA1 mRNA = ABCA1 mRNA - HepG2 (qRT-PCR); format: cell-based, human
ABCA1 = ABCA1 firefly reporter assay in CCF-001 cells; format: cell-based; conditions: ABCA1 firefly reporter assay in CCF-001 cells (Table 8)
J774 cells [1] = test: BODIPY-cholesterol efflux from J774 macrophages to apoA1; format: cell-based
Procedure: Cholesterol Efflux. Plated J774 cells (RRID:CVCL 0358) purchased from ATCC and used without further validation were incubated in serum-free medium containing 0.5 μM BODIPY-cholesterol (Cayman) for 24 hours. Medium was replaced with fresh serum-free medium containing test compound for 24 hours. For experiments with probucol (Sigma), it was added at 20 μM for the final 2 hours with test compound. Then, fresh serum-free medium containing 20 μg/mL purified recombinant apolipoprotein A1 (Sigma) was added for 6 hours. Acceptor-containing medium was transferred to a new plate, while cells were lysed with RIPA buffer. Fluorescence (Ex480/Em530) was measured in both components, with data reported as % efflux=(medium fluorescence)/(medium fluorescence+lysate fluorescence) normalized to background efflux (% efflux in DMSO-treated cells without exogenous apoA1).

LXRβ = biological target: T1, LXRβ (Homo sapiens, UniProt P55055); test: LXRβ NHR screen (DiscoverX NHR-Scan, β-gal reporter); format: cell-based
T1 sequence (P55055 1-460): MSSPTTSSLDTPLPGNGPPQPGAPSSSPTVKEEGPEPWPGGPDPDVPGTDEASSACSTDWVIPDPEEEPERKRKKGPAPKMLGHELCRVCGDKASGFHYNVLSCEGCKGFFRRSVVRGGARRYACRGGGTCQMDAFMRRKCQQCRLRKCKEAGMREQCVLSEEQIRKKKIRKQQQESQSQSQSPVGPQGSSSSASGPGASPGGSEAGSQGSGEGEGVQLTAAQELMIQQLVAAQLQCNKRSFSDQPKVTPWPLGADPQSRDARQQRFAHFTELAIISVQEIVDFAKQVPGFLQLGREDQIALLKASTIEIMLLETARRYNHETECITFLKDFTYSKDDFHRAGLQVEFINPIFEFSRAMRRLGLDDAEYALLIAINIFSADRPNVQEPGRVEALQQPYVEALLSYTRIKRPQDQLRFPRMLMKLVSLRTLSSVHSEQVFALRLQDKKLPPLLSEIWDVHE
Procedure: (§1) Receptor Binding Assays. Nuclear hormone (NHR) assays were performed by DiscoverX (Fremont, CA) on their NHR-Scan platform of cell-based protein-protein interaction assays. This platform uses a […] reporter that activates upon interaction of full-length receptor protein with steroid coactivator receptor peptides. In agonist mode, activity of CL2-57 at 10 μM was compared to maximal activity of published positive control agonists; in antagonist mode, reduction in activity with 10 μM CL2-57 from that observed at […] of published agonists was quantified.

C57Bl/6 control mice = test: C57Bl/6 control mice, daily p.o. CL2-57 for one week; format: in vivo, mouse
PPARβ/δ = biological target: T2, PPARβ/δ (Homo sapiens, UniProt Q03181); test: PPARβ/δ NHR screen, antagonist mode; conditions: cell-based β-gal reporter assay, 10 μM
T2 sequence (Q03181 1-441): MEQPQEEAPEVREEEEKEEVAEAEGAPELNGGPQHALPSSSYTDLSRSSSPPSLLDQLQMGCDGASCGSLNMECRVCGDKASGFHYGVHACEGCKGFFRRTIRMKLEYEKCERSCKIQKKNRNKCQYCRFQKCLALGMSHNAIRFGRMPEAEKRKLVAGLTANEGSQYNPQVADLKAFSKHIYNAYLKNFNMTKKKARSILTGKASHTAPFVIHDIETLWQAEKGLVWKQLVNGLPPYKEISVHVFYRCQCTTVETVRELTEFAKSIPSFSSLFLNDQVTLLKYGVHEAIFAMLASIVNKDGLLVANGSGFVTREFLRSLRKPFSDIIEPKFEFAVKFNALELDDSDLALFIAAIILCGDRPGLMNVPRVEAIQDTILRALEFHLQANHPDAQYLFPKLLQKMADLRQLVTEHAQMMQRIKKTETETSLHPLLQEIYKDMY
Procedure: as §1

J774 cells [2] = test: siRNA knockdown of LXRα/LXRβ in J774 cells; format: cell-based
Procedure: siRNA Knockdown. J774 cells were plated in 24-well plates in serum-containing medium, to which an additional 100 μL of medium containing 10 pmol of siRNA and 3 μL of LIPOFECTAMINE® RNAIMAX® transfection reagent (Thermo Fisher Scientific) were added. After 24 hours, serum-free medium containing 10 μM C12-57 or vehicle control was added to each well for 24 hours. Cells were lysed and analyzed per qPCR and immunoblot procedures above. siRNAs used: Thermo Fisher 188584 (Nr1h3 silencer), 186947 (Nr1h2 silencer), and AM4611 (Silencer Negative Control siRNA #1).

For `CCOC(=O)c1cccc(NC(=O)c2sc(Cl)cc2S(=O)(=O)N(C)c2ccc(OCC)c(OCC)c2)c1` [CL2-57, ethyl 3-(5-chloro-3-(N-(3,4-diethoxyphenyl)-N-methylsulfamoyl)thiophene-2-carboxamido) benzoate], the “ABCA1 mRNA - HepG2, activity of CL2-57 (10 μM) as % of T0901317 (1 μM)” value (ABCA1 mRNA; 10 μM) was 60%, the “ABCA1 mRNA” value (ABCA1 mRNA; HepG2 hepatocarcinoma cells) was “Increased” and the EC50 (ABCA1) was 817 nM. For the same molecule, the “Cholesterol Efflux - J774, activity of CL2-57 (10 μM) as % of T0901317 (1 μM)” value (J774 cells [1]; 10 μM) was 183%, the “Cholesterol efflux from macrophages to apoA1” value (J774 cells [1]; fluorescent BODIPY-tagged cholesterol) was “dose-dependently increased” and the “Increased cholesterol efflux with ABCA1 inhibitor probucol” value (J774 cells [1]; probucol 20 μM for the final 2 hours) was “blocked”. For the same molecule, the “LXRβ NHR screen, activity of CL2-57 (10 μM) as % of T0901317 (1 μM)” value (LXRβ; 10 μM) was 75%, the “LXR β/α selectivity by Emax” value (LXRβ; cell-based β-gal reporter assays) was 2.5 fold and the “Functional mode at LXR” value (LXRβ; cell-based β-gal reporter assays, 10 μM) was “partial LXR agonist”. For the same molecule, the Hepatic lipogenesis (C57Bl/6 control mice; 10 mg/kg daily p.o. one week) was “low-magnitude increases”, the “Plasma TG or cholesterol compared to vehicle controls” value (C57Bl/6 control mice; C57Bl/6 mice, one week daily p.o.) was “no changes” and the “Functional mode at PPARβ/δ” value (PPARβ/δ) was “weak antagonist”. For the same molecule, the “ABCA1 induction under LXR siRNA knockdown” value (J774 cells [2]; 10 μM, J774) was “mediated by LXRβ”, the “Induction of Abcg1 under LXR siRNA knockdown” value (J774 cells [2]; J774) was “reduced by LXRβ knockdown” and the “Induction of Slc2a1 (GLUT1) under LXR siRNA knockdown” value (J774 cells [2]; J774) was “reduced by LXRβ knockdown”. For the same molecule, the “Irs1 increases under LXR siRNA knockdown” value (J774 cells [2]; J774) was “not affected by loss of either LXR isoform” and the “LXR target gene Apoe” value (J774 cells [2]; J774 cells) was “not significantly affected”.
